{"source": "patent US20140315886A1", "about": "“QUINAZOLINES AS THERAPEUTIC COMPOUNDS AND RELATED METHODS OF USE” (OTSUKA PHARMACEUTICAL CO., LTD., priority 2011, published 2014)"}
{"target": "T1, purified STEP46 enzyme (Homo sapiens, UniProt P54829)", "T1 sequence (P54829 197-565 limits assumed)": "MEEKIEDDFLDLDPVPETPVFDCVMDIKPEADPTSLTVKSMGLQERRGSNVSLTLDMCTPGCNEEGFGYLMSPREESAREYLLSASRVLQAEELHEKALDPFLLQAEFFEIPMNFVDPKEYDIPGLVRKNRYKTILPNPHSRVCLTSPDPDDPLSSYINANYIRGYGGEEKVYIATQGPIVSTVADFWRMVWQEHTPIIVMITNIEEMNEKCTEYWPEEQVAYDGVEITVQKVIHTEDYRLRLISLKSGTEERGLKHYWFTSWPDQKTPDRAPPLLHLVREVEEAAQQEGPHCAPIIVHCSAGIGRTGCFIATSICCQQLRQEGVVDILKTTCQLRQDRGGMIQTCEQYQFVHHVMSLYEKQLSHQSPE", "assay": "STEP46 biochemical assay (DiFMUP fluorescence phosphatase assay)", "settings": "DiFMUP 10 μM, read-out: STEP IC50", "method_in_brief": "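Purified human STEP46 preincubated 30 min at room temperature with compounds in Hepes/DTT/Brij35 buffer (2% DMSO final), then reacted with 10 μM DiFMUP for 90 min at 27°C; fluorescence read at 360/460 nm. IC50 from four-parameter fit; activation shown as negative % inhibition at 25, 50, 100 uM.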", "units": {"IC50": "nM"}}
{"smiles": "CNc1nc(-c2cccnc2)nc2c(F)c(-c3ccncc3)ccc12", "note": "[Compound 519]", "IC50": "1000 to 10000"}
{"smiles": "CNc1nc(-c2cccnc2)nc2c(F)c(-c3cc(F)c(F)c(F)c3)ccc12", "note": "[Compound 520]", "IC50": "< 1000"}
{"smiles": "CNc1nc(-c2cccnc2)nc2c(F)c(-c3ccc(F)c(F)c3F)ccc12", "note": "[Compound 521]", "IC50": "1000 to 10000"}
{"smiles": "CNc1nc(-c2cccnc2)nc2c(F)c(-c3cc(F)c(F)cc3F)ccc12", "note": "[Compound 522]", "IC50": "1000 to 10000"}
{"smiles": "CNc1nc(-c2cccnc2)nc2c(F)c(-c3cc(F)cc(F)c3F)ccc12", "note": "[Compound 523]", "IC50": "< 1000"}
{"smiles": "CNc1nc(-c2cccnc2)nc2c(F)c(-c3ccco3)ccc12", "note": "[Compound 524]", "IC50": "1000 to 10000"}
{"smiles": "CNc1nc(-c2cccnc2)nc2c(F)c(-c3cccc(C)c3)ccc12", "note": "[Compound 525]", "IC50": "1000 to 10000"}
{"smiles": "CNc1nc(-c2cccnc2)nc2c(F)c(-c3ccc(C)cc3)ccc12", "note": "[Compound 526]", "IC50": "1000 to 10000"}
{"smiles": "CNc1nc(-c2cccnc2)nc2c(F)c(-c3ccsc3)ccc12", "note": "[Compound 527]", "IC50": "1000 to 10000"}
{"smiles": "CNc1nc(-c2cccnc2)nc2c(F)c(-c3ccc(C(F)(F)F)cc3)ccc12", "note": "[Compound 528]", "IC50": "1000 to 10000"}
{"smiles": "CNc1nc(-c2cccnc2)nc2c(F)c(-c3ccc4sccc4c3)ccc12", "note": "[Compound 529]", "IC50": "1000 to 10000"}
{"smiles": "CNc1nc(-c2cccnc2)nc2c(F)c(-c3ccoc3)ccc12", "note": "[Compound 530]", "IC50": "1000 to 10000"}
{"smiles": "CNc1nc(-c2cccnc2)nc2c(F)c(-c3ccc4c(cnn4C)c3)ccc12", "note": "[Compound 532]", "IC50": "< 1000"}
{"smiles": "CNc1nc(-c2cccnc2)nc2c(F)c(-c3cccs3)ccc12", "note": "[Compound 533]", "IC50": "1000 to 10000"}
{"smiles": "CNc1nc(-c2cccnc2)nc2c(F)c(-c3cc4ccccc4s3)ccc12", "note": "[Compound 534]", "IC50": "> 10000"}
{"smiles": "CNc1nc(-c2cccnc2)nc2c(F)c(-c3ccc4[nH]ncc4c3)ccc12", "note": "[Compound 535]", "IC50": "1000 to 10000"}
{"smiles": "CNc1nc(-c2cccnc2)nc2c(F)c(-c3csc4ccccc34)ccc12", "note": "[Compound 537]", "IC50": "1000 to 10000"}
{"smiles": "CNc1nc(-c2cccnc2)nc2c(F)c(-c3cccc4sccc34)ccc12", "note": "[Compound 538]", "IC50": "1000 to 10000"}
{"smiles": "CNc1nc(-c2cccnc2)nc2c(F)c(-c3ccc(F)c(C)c3)ccc12", "note": "[Compound 541]", "IC50": "1000 to 10000"}
{"smiles": "CNc1nc(-c2cccnc2)nc2c(F)c(-c3ccc(F)cc3OC)ccc12", "note": "[Compound 543]", "IC50": "1000 to 10000"}
{"smiles": "CNc1nc(-c2cccnc2)nc2c(F)c(-c3ccc(OC)c(F)c3)ccc12", "note": "[Compound 544]", "IC50": "< 1000"}
{"smiles": "CNc1nc(-c2cccnc2)nc2cc(-c3cccc(F)c3)c(F)cc12", "note": "[Compound 550]", "IC50": "1000 to 10000"}
{"smiles": "CNc1nc(-c2cccnc2)nc2cc(-c3ccc(F)cc3F)c(F)cc12", "note": "[Compound 551]", "IC50": "1000 to 10000"}
{"smiles": "CNc1nc(-c2cccnc2)nc2cc(-c3ccccc3F)c(F)cc12", "note": "[Compound 552]", "IC50": "1000 to 10000"}
{"smiles": "CNc1nc(-c2cccnc2)nc2cc(-c3ccc(F)cc3)c(F)cc12", "note": "[Compound 553]", "IC50": "1000 to 10000"}
{"smiles": "CNc1nc(-c2cccnc2)nc2cc(-c3cc(F)ccc3F)c(F)cc12", "note": "[Compound 554]", "IC50": "1000 to 10000"}
{"smiles": "CNc1nc(-c2cccnc2)nc2cc(-c3cc(F)cc(F)c3)c(F)cc12", "note": "[Compound 555]", "IC50": "< 1000"}
{"smiles": "CNc1nc(-c2cccnc2)nc2cc(-c3cccc(C#N)c3)c(F)cc12", "note": "[Compound 556]", "IC50": "1000 to 10000"}
{"smiles": "CNc1nc(-c2cccnc2)nc2cc(-c3cccc(F)c3F)c(F)cc12", "note": "[Compound 557]", "IC50": "1000 to 10000"}
{"smiles": "CNc1nc(-c2cccnc2)nc2cc(-c3ccc(F)c(F)c3)c(F)cc12", "note": "[Compound 558]", "IC50": "1000 to 10000"}
{"smiles": "CNc1nc(-c2cccnc2)nc2cc(-c3ccc(C#N)cc3)c(F)cc12", "note": "[Compound 559]", "IC50": "1000 to 10000"}
{"smiles": "CNc1nc(-c2cccnc2)nc2c(F)cc(-c3cccc(F)c3)cc12", "note": "[Compound 563]", "IC50": "1000 to 10000"}
{"smiles": "CNc1nc(-c2cccnc2)nc2c(F)cc(-c3ccccc3OC)cc12", "note": "[Compound 566]", "IC50": "> 10000"}
{"smiles": "CNc1nc(-c2cccnc2)nc2c(F)cc(-c3ccccc3C#N)cc12", "note": "[Compound 567]", "IC50": "< 1000"}
{"smiles": "CNc1nc(-c2cccnc2)nc2c(F)cc(-c3cc(F)cc(F)c3)cc12", "note": "[Compound 569]", "IC50": "1000 to 10000"}
